Source: BindingDB's records for doi:10.1021/acs.biochem.6b01308 (Johns Hopkins University, 2017)
pKd: −log10 of the molar value.

Experiments:
[1] = molecular target: T1, Iodotyrosine deiodinase [1-228] (Haliscomenobacter hydrossis, UniProt F4KU78); test: IYD Binding Assay
T1 construct: 1-228
T1 sequence (F4KU78 whole entry): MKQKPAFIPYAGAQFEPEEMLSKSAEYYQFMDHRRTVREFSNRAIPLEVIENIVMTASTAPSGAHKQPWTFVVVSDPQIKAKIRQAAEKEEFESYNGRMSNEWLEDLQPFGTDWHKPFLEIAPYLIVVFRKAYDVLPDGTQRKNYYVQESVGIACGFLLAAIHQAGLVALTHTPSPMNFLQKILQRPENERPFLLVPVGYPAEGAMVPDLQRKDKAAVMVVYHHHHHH
Description: (§1) Dissociation constants (Kd) for the ligands of IYD were determined by their ability to quench the fluorescence of the oxidized FMN (FMNox) (λex 450 nm, λem 523 nm) in the active site of IYD as previously described [Hu et al., J. Biol. Chem., 290:590-600; McTamney et al., J. Am. Chem. Soc., 131:14212-14213].

[2] = molecular target: T2, Iodotyrosine deiodinase 1 [1-1,32-289] (Homo sapiens, UniProt Q6PHW0); test: IYD Binding Assay
T2 construct: 1-1,32-289
T2 sequence (Q6PHW0 whole entry): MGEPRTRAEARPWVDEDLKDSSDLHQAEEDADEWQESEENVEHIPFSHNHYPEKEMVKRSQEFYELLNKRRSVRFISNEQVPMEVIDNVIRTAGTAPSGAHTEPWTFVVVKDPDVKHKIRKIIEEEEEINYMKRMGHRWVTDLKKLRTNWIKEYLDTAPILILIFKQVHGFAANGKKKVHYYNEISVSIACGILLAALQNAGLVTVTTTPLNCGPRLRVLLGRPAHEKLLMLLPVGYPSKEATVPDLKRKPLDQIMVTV
Description: as §1

Row | SMILES | pKd [1] | pKd [2]
1 | N[C@@H](Cc1ccc(O)c(I)c1)C(=O)O | 5.09 | 7.05
2 | Oc1ccccc1I [2-Iodophenol (2IP)] | 4.17 | 2.85
3 | Nc1ccc(O)c(I)c1 [4-Amino-2-iodophenol (4A2IP)] | 4.02 | 
4 | N#Cc1ccc(O)c(I)c1 [4-Cyano-2-iodophenol (2IPCN)] | 5.84 | 
5 | O=C(O)c1ccc(O)c(I)c1 [4-Hydroxy-3-iodobenzoic acid (2IPCOOH)] | 4.62 | 
